{"source": "patent US8952024B2", "about": "“Herbicidal pyrimidone derivatives” (E I du Pont de Nemours and Company, priority 2009, dated 2015)", "assay_in_all_cases": "Test D pre-/postemergence plant response", "format_in_all_cases": "in vivo", "key": {"[1]": {"system": "mallow (common mallow, Malva sylvestris)", "in_short": "(§1)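 Visual 0–100 scoring (100 = complete control) versus untreated controls after 14–21 greenhouse days. Compounds, formulated in surfactant-containing non-phytotoxic solvent, were applied preemergence to seeded loam/sand and postemergence to 2–18 cm plants (1–4 leaves).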"}, "[2]": {"system": "green foxtail (Setaria viridis)", "in_short": "as §1"}, "[3]": {"system": "spanishneedles (Bidens bipinnata)", "in_short": "as §1"}, "[4]": {"system": "dallisgrass (Paspalum dilatatum)", "in_short": "as §1"}, "[5]": {"system": "sandbur (southern sandbur, Cenchrus echinatus)", "in_short": "as §1"}, "[6]": {"system": "johnsongrass (Sorghum halepense)", "in_short": "as §1"}, "[7]": {"system": "prickly sida (Sida spinosa)", "in_short": "as §1"}, "[8]": {"system": "goosegrass (Eleusine indica)", "in_short": "as §1"}, "[9]": {"system": "itchgrass (Rottboellia cochinchinensis)", "in_short": "as §1"}, "[10]": {"system": "kochia (Kochia scoparia)", "in_short": "as §1"}, "[11]": {"system": "bluegrass (annual bluegrass, Poa annua)", "in_short": "as §1"}, "[12]": {"system": "ragweed (common ragweed, Ambrosia elatior)", "in_short": "as §1"}, "[13]": {"system": "dayflower (Virginia (VA) dayflower, Commelina virginica)", "in_short": "as §1"}, "[14]": {"system": "barnyardgrass (Echinochloa crus-galli)", "in_short": "as §1"}, "[15]": {"details": "Postemergence, 16 g ai/ha, scale 0 to 100"}, "[16]": {"details": "Postemergence, 31 g ai/ha, scale 0 to 100"}, "[17]": {"details": "Postemergence, 125 g ai/ha, scale 0 to 100 (0 no effect, 100 complete control)"}, "[18]": {"details": "Postemergence, 62 g ai/ha, scale 0 to 100 (0 no effect, 100 complete control)"}, "[19]": {"details": "Preemergence, 16 g ai/ha, scale 0 to 100, 0 no effect, 100 complete control"}, "[20]": {"details": "Preemergence, 31 g ai/ha, scale 0 to 100 (0 no effect, 100 complete control)"}, "[21]": {"details": "Preemergence, 62 g ai/ha, scale 0 to 100"}, "[22]": {"details": "Preemergence, 125 g ai/ha, scale 0 to 100"}, "[23]": {"details": "Postemergence, 31 g ai/ha, scale 0 to 100 (0 no effect, 100 complete control)"}}}
{"compound": "O=C1CCCC(O)=C1C(=O)c1cnc(-c2cccs2)n(-c2ccccc2)c1=O", "note": "[Compound 66]", "values": [{"measurement": "Plant response rating, Mallow", "setting": "[1]; [15]", "result": 25}, {"measurement": "Plant response rating, Mallow", "setting": "[1]; [16]", "result": 30}, {"measurement": "Plant response rating, Mallow", "setting": "[1]; [17]", "result": 60}, {"measurement": "Plant response rating, Mallow", "setting": "[1]; [18]", "result": 60}, {"measurement": "Plant response rating, Mallow", "setting": "[1]; [19]", "result": 0}, {"measurement": "Plant response rating, Mallow", "setting": "[1]; [20]", "result": 0}, {"measurement": "Plant response rating, Mallow", "setting": "[1]; [21]", "result": 5}, {"measurement": "Plant response rating, Mallow", "setting": "[1]; [22]", "result": 75}, {"measurement": "Plant response rating, Foxtail, Green", "setting": "[2]; [15]", "result": 20}, {"measurement": "Plant response rating, Foxtail, Green", "setting": "[2]; [16]", "result": 35}, {"measurement": "Plant response rating, Foxtail, Green", "setting": "[2]; [17]", "result": 80}, {"measurement": "Plant response rating, Foxtail, Green", "setting": "[2]; [18]", "result": 65}, {"measurement": "Plant response rating, Foxtail, Green", "setting": "[2]; [19]", "result": 0}, {"measurement": "Plant response rating, Foxtail, Green", "setting": "[2]; [20]", "result": 0}, {"measurement": "Plant response rating, Foxtail, Green", "setting": "[2]; [21]", "result": 0}, {"measurement": "Plant response rating, Foxtail, Green", "setting": "[2]; [22]", "result": 5}, {"measurement": "Plant response rating, Spanishneedles", "setting": "[3]; [15]", "result": 65}, {"measurement": "Plant response rating, Spanishneedles", "setting": "[3]; [16]", "result": 70}, {"measurement": "Plant response rating, Spanishneedles", "setting": "[3]; [17]", "result": 80}, {"measurement": "Plant response rating, Spanishneedles", "setting": "[3]; [18]", "result": 80}, {"measurement": "Plant response rating, Spanishneedles", "setting": "[3]; [19]", "result": 0}, {"measurement": "Plant response rating, Spanishneedles", "setting": "[3]; [20]", "result": 60}, {"measurement": "Plant response rating, Spanishneedles", "setting": "[3]; [22]", "result": 95}, {"measurement": "Plant response rating, Dallisgrass", "setting": "[4]; [15]", "result": 35}, {"measurement": "Plant response rating, Dallisgrass", "setting": "[4]; [16]", "result": 35}, {"measurement": "Plant response rating, Dallisgrass", "setting": "[4]; [17]", "result": 60}, {"measurement": "Plant response rating, Dallisgrass", "setting": "[4]; [18]", "result": 35}, {"measurement": "Plant response rating, Dallisgrass", "setting": "[4]; [19]", "result": 0}, {"measurement": "Plant response rating, Dallisgrass", "setting": "[4]; [20]", "result": 5}, {"measurement": "Plant response rating, Dallisgrass", "setting": "[4]; [21]", "result": 5}, {"measurement": "Plant response rating, Dallisgrass", "setting": "[4]; [22]", "result": 95}, {"measurement": "Plant response rating, Sandbur", "setting": "[5]; [16]", "result": 35}, {"measurement": "Plant response rating, Sandbur", "setting": "[5]; [17]", "result": 90}, {"measurement": "Plant response rating, Sandbur", "setting": "[5]; [18]", "result": 35}, {"measurement": "Plant response rating, Sandbur", "setting": "[5]; [19]", "result": 0}, {"measurement": "Plant response rating, Sandbur", "setting": "[5]; [20]", "result": 5}, {"measurement": "Plant response rating, Sandbur", "setting": "[5]; [22]", "result": 80}, {"measurement": "Plant response rating, Johnsongrass", "setting": "[6]; [15]", "result": 0}, {"measurement": "Plant response rating, Johnsongrass", "setting": "[6]; [16]", "result": 20}, {"measurement": "Plant response rating, Johnsongrass", "setting": "[6]; [17]", "result": 60}, {"measurement": "Plant response rating, Johnsongrass", "setting": "[6]; [18]", "result": 50}, {"measurement": "Plant response rating, Johnsongrass", "setting": "[6]; [19]", "result": 0}, {"measurement": "Plant response rating, Johnsongrass", "setting": "[6]; [20]", "result": 0}, {"measurement": "Plant response rating, Johnsongrass", "setting": "[6]; [21]", "result": 0}, {"measurement": "Plant response rating, Johnsongrass", "setting": "[6]; [22]", "result": 30}, {"measurement": "Plant response rating, Prickly Sida", "setting": "[7]; [16]", "result": 98}, {"measurement": "Plant response rating, Prickly Sida", "setting": "[7]; [17]", "result": 98}, {"measurement": "Plant response rating, Prickly Sida", "setting": "[7]; [18]", "result": 98}, {"measurement": "Plant response rating, Prickly Sida", "setting": "[7]; [19]", "result": 0}, {"measurement": "Plant response rating, Prickly Sida", "setting": "[7]; [20]", "result": 0}, {"measurement": "Plant response rating, Prickly Sida", "setting": "[7]; [21]", "result": 5}, {"measurement": "Plant response rating, Prickly Sida", "setting": "[7]; [22]", "result": 90}, {"measurement": "Plant response rating, Goosegrass", "setting": "[8]; [15]", "result": 50}, {"measurement": "Plant response rating, Goosegrass", "setting": "[8]; [16]", "result": 50}, {"measurement": "Plant response rating, Goosegrass", "setting": "[8]; [17]", "result": 75}, {"measurement": "Plant response rating, Goosegrass", "setting": "[8]; [18]", "result": 65}, {"measurement": "Plant response rating, Goosegrass", "setting": "[8]; [19]", "result": 0}, {"measurement": "Plant response rating, Goosegrass", "setting": "[8]; [20]", "result": 0}, {"measurement": "Plant response rating, Goosegrass", "setting": "[8]; [21]", "result": 30}, {"measurement": "Plant response rating, Goosegrass", "setting": "[8]; [22]", "result": 50}, {"measurement": "Plant response rating, Itchgrass", "setting": "[9]; [15]", "result": 10}, {"measurement": "Plant response rating, Itchgrass", "setting": "[9]; [16]", "result": 15}, {"measurement": "Plant response rating, Itchgrass", "setting": "[9]; [17]", "result": 40}, {"measurement": "Plant response rating, Itchgrass", "setting": "[9]; [18]", "result": 35}, {"measurement": "Plant response rating, Itchgrass", "setting": "[9]; [19]", "result": 0}, {"measurement": "Plant response rating, Itchgrass", "setting": "[9]; [20]", "result": 0}, {"measurement": "Plant response rating, Itchgrass", "setting": "[9]; [21]", "result": 0}, {"measurement": "Plant response rating, Itchgrass", "setting": "[9]; [22]", "result": 0}, {"measurement": "Plant response rating, Kochia", "setting": "[10]; [16]", "result": 25}, {"measurement": "Plant response rating, Kochia", "setting": "[10]; [17]", "result": 40}, {"measurement": "Plant response rating, Kochia", "setting": "[10]; [18]", "result": 25}, {"measurement": "Plant response rating, Kochia", "setting": "[10]; [19]", "result": 0}, {"measurement": "Plant response rating, Kochia", "setting": "[10]; [20]", "result": 65}, {"measurement": "Plant response rating, Kochia", "setting": "[10]; [21]", "result": 65}, {"measurement": "Plant response rating, Kochia", "setting": "[10]; [22]", "result": 90}, {"measurement": "Plant response rating, Bluegrass", "setting": "[11]; [15]", "result": 0}, {"measurement": "Plant response rating, Bluegrass", "setting": "[11]; [23]", "result": 0}, {"measurement": "Plant response rating, Bluegrass", "setting": "[11]; [17]", "result": 0}, {"measurement": "Plant response rating, Bluegrass", "setting": "[11]; [18]", "result": 0}, {"measurement": "Plant response rating, Bluegrass", "setting": "[11]; [19]", "result": 0}, {"measurement": "Plant response rating, Bluegrass", "setting": "[11]; [20]", "result": 0}, {"measurement": "Plant response rating, Bluegrass", "setting": "[11]; [21]", "result": 0}, {"measurement": "Plant response rating, Bluegrass", "setting": "[11]; [22]", "result": 0}, {"measurement": "Plant response rating, Ragweed", "setting": "[12]; [15]", "result": 0}, {"measurement": "Plant response rating, Ragweed", "setting": "[12]; [16]", "result": 0}, {"measurement": "Plant response rating, Ragweed", "setting": "[12]; [17]", "result": 5}, {"measurement": "Plant response rating, Ragweed", "setting": "[12]; [18]", "result": 0}, {"measurement": "Plant response rating, Ragweed", "setting": "[12]; [19]", "result": 0}, {"measurement": "Plant response rating, Ragweed", "setting": "[12]; [20]", "result": 0}, {"measurement": "Plant response rating, Ragweed", "setting": "[12]; [22]", "result": 0}, {"measurement": "Plant response rating, Dayflower, VA", "setting": "[13]; [15]", "result": 0}, {"measurement": "Plant response rating, Dayflower, VA", "setting": "[13]; [16]", "result": 0}, {"measurement": "Plant response rating, Dayflower, VA", "setting": "[13]; [17]", "result": 30}, {"measurement": "Plant response rating, Dayflower, VA", "setting": "[13]; [18]", "result": 0}, {"measurement": "Plant response rating, Dayflower, VA", "setting": "[13]; [19]", "result": 0}, {"measurement": "Plant response rating, Dayflower, VA", "setting": "[13]; [20]", "result": 0}, {"measurement": "Plant response rating, Dayflower, VA", "setting": "[13]; [21]", "result": 0}, {"measurement": "Plant response rating, Dayflower, VA", "setting": "[13]; [22]", "result": 5}, {"measurement": "Plant response rating, Barnyardgrass", "setting": "[14]; [15]", "result": 35}, {"measurement": "Plant response rating, Barnyardgrass", "setting": "[14]; [23]", "result": 65}, {"measurement": "Plant response rating, Barnyardgrass", "setting": "[14]; [17]", "result": 75}, {"measurement": "Plant response rating, Barnyardgrass", "setting": "[14]; [18]", "result": 70}, {"measurement": "Plant response rating, Barnyardgrass", "setting": "[14]; [19]", "result": 0}, {"measurement": "Plant response rating, Barnyardgrass", "setting": "[14]; [20]", "result": 0}, {"measurement": "Plant response rating, Barnyardgrass", "setting": "[14]; [21]", "result": 5}, {"measurement": "Plant response rating, Barnyardgrass", "setting": "[14]; [22]", "result": 75}]}
